Consider four compounds from paper PMC6247892, “Ficus sycomorus latex: An efficient alternative Egyptian source for horseradish peroxidase in labeling with antibodies for immunodiagnostic kits” (Veterinary World, 2018).

Where a name gives a salt, the structure may show the parent alone. Read-outs that look alike come from different tables or passages of the source.

The test system of the assay is POL (peroxidase of sycamore fig latex). Briefly: spectrophotometric peroxidase assay, substrate variation. It is filed as biochemical, Ficus sycomorus. As to conditions: co-substrate H2O2, free enzyme, standard assay pH 5.5, room temperature (28-30°C). An excerpt:
spectrophotometric peroxidase assay, substrate variation on POL (peroxidase of sycamore fig latex)

As for `Cc1cc(-c2cc(C)c(N)c(C)c2)cc(C)c1N` [3,3`,5,5`tetramethylbenzidine], the Km (read-out: Km (mM substrates) / TMB) was 7 ± 0.8 mM.

As to `Oc1ccc(Cl)c2ccccc12` [4-chloro-1-naphthol], the Km (read-out: Km (mM substrates) / 4C-1N) stood at 5 ± 0.6 mM.

Turning to `CCn1c(=NN=c2sc3cc(S(=O)(=O)O)ccc3n2CC)sc2cc(S(=O)(=O)O)ccc21` [ABTS], the Km (read-out: Km (mM substrates) / ABTS) is 4.5 ± 0.5 mM.

In the case of `Nc1ccccc1N` [o-phenylenediamine dihydrochloride], the Km (read-out: Km (mM substrates) / OPD) was determined as 5.8 ± 0.4 mM.
